Like-named read-outs stand apart in the source and are kept apart here.
Legend:
Assay type in all cases: cell-based
[1] = system: Human diffuse large B-cell lymphoma cell line (TMD8); assay: Inhibition of TMD8 cell proliferation (CellTiter luminescent viability); conditions: Homo sapiens, TMD8, 96 h; for inhibition at 0.01 µM: TMD8, 10 nM, read-out: Inhibition Rate at 10 nM (%); for inhibition at 0.5 µM: TMD8, 500 nM, read-out: Inhibition Rate at 500 nM (%)
Protocol: (§1) The tumor cells used herein were cultured in a cell culture medium listed in table 3 at 37 °C in an incubator with 5% CO2. Prior to experimentation, all cell lines used were correctly identified by STR profiling, and tested negative for mycoplasma contamination using a mycoplasma detection kit through routine screenings.
(§2) The IC50 values of the compounds of the present disclosure (including the compounds in Table 1, Table 2, and Examples 1-468) were determined using the CellTiter-Meiluncell Luminescent Cell Viability Assay Kit from Dalian Meilun Biotech Co., Ltd. The detailed procedure is as follows: Tumor cells were seeded in 96-well cell culture plates at the densities specified in Table 4. On the following day, the test compounds of the present disclosure were subjected to serial dilution. The dilution can be performed according to one of the following two methods: • (1) The first dilution method: The test compounds of the present disclosure (including the compounds in Table 1, Table 2, and Examples 1-468) were subjected to 5-fold serial dilutions starting from a highest concentration of 2000 μM, resulting in a total of 9 concentrations from high to low (2000, 400, 80, 16, 3.2, 0.64, 0.128, 0.0256, 0.00512 μM). Subsequently, 0.5 μL of the test compound dilution was transferred into the 96-well plate containing the cells, with each well containing 100 μL of cell culture medium. […] Into the 96-well plate, the diluted test compounds and corresponding detection reagents were added, resulting in final test compound concentrations of 500 nM and 10 nM, respectively. The experimental procedure is described below using the diluted 2 μM test compound as an example.
(§3) 0.5 μL of the aforementioned diluted compound of the present disclosure (including the compounds in Table 1, Table 2, and Examples 1-468) was added to the seeded cells in 100 μL of medium, yielding a final test compound concentration of 10 nM. After the cells were treated with the compounds of the present disclosure for a specified period, the cell viability assay reagent was added to the culture medium according to the kit's instructions to determine cell viability. […] All controls were treated using the same procedure as the compounds of the present disclosure. The growth inhibition curves for the compounds of the present disclosure were plotted using Prism GraphPad software, and the IC50 values were calculated therefrom.

[2] = system: Human acute lymphocytic leukemia T lymphocytes cell line (CCRF-CEM); assay: Inhibition of CCRF-CEM cell proliferation (CellTiter luminescent viability); conditions: Homo sapiens, 96 h, Table IF2, AR inhibitor-based; for inhibition at 0.01 µM: 10 nM, read-out: Inhibition Rate at 10 nM (%); for inhibition at 0.5 µM: 500 nM, read-out: Inhibition Rate at 500 nM (%)
Protocol: as §1, §2, §3

[3] = system: Human Multiple myeloma cell line (MM.1S); assay: Inhibition of MM.1S cell proliferation (CellTiter luminescent viability); conditions: Homo sapiens, MM1.S, Table IJ1, Tau inhibitor-based, 96 hours; for inhibition at 0.01 µM: 10 nM, read-out: Inhibition Rate at 10 nM (%); for inhibition at 0.5 µM: 500 nM, read-out: Inhibition Rate at 500 nM (%)
Method in brief: (§4)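 IC50 is fitted from luminescent viability (CellTiter-Meiluncell) curves. Nine-point, 5-fold dilution series (top stock 2000 μM) are added at 0.5 μL per 100 μL medium to cells plated the day before, with growth at 37 °C and 5% CO2.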

[4] = system: Human myeloid monocytic leukemia cell line (MV-4-11); assay: Inhibition of MV-4-11 cell proliferation (CellTiter luminescent viability); conditions: Homo sapiens, MV4-11, Table IJ2, Tau inhibitor-based, 96 hours; for inhibition at 0.01 µM: MV-4-11, 10 nM, read-out: Inhibition Rate at 10 nM (%); for inhibition at 0.5 µM: MV-4-11, 500 nM, read-out: Inhibition Rate at 500 nM (%)
Method in brief: as §4

## CC1(C)[C@H](NC(=O)c2ccc(N3CCC(CN4CCN(C5CCN(c6ccc7c(c6)C(=O)N(N6CCC(=O)NC6=O)C7=O)CC5(F)F)CC4)CC3)nc2)C(C)(C)[C@H]1Oc1ccc(C#N)c(Cl)c1 (stereo partly shown) [GT-05347, N-((1r,3r)-3-(3-chloro-4-cyanophenoxy)-2,2,4,4-tetramethylcyclobutyl)-6-(4-((4-(1-(2-(2,4-dioxotetrahydropyrimidin-1(2H)-yl)-1,3-dioxoisoindolin-5-yl)-3,3-difluoropiperidin-4-yl)piperazin-1-yl)methyl)piperidin-1-yl)nicotinamide]
[1]; Table IF1, AR inhibitor-based
  inhibition at 0.01 µM: 5 to 10%
  inhibition at 0.5 µM: 20 to 25%

## O=C1CCN(N2C(=O)c3ccc(COc4ccc(Cl)cc4-c4nc5cc(C(F)(F)F)cc(Cl)c5[nH]4)cc3C2=O)C(=O)N1 [GT-06478, 5-((4-chloro-2-(7-chloro-5-(trifluoromethyl)-1H-benzo[d]imidazol-2-yl)phenoxy)methyl)-2-(2,4-dioxotetrahydropyrimidin-1(2H)-yl)isoindoline-1,3-dione]
[1]; Table IF1, AR inhibitor-based
  inhibition at 0.01 µM: 15 to 20%
  inhibition at 0.5 µM: 30 to 35%

## CC1(C)[C@H](NC(=O)c2ccc(N3CCC(CN4CCN(c5cc6c(cc5F)C(=O)N(N5CCC(=O)NC5=O)C6=O)CC4)CC3)nc2)C(C)(C)[C@H]1Oc1ccc(C#N)c(Cl)c1 [GT-05304, N-((1r,3r)-3-(3-chloro-4-cyanophenoxy)-2,2,4,4-tetramethylcyclobutyl)-6-(4-((4-(2-(2,4-dioxotetrahydropyrimidin-1(2H)-yl)-6-fluoro-1,3-dioxoisoindolin-5-yl)piperazin-1-yl)methyl)piperidin-1-yl)nicotinamide]
[1]; Table IF1, AR inhibitor-based
  inhibition at 0.01 µM: 30 to 35%
  inhibition at 0.5 µM: 40 to 60%
[2]
  inhibition at 0.01 µM: 20 to 30%
  inhibition at 0.5 µM: 30 to 40%

## Cc1cc(-c2ccc3c4cnccc4n(C)c3c2)cnc1N1CCN(CC2CCN(c3cccc4c3C(=O)N(N3CCC(=O)NC3=O)C4=O)CC2)CC1 [GT-08563, 2-(2,4-dioxotetrahydropyrimidin-1(2H)-yl)-4-(4-((4-(3-methyl-5-(5-methyl-5H-pyrido[4,3-b]indol-7-yl)pyridin-2-yl)piperazin-1-yl)methyl)piperidin-1-yl)isoindoline-1,3-dione]
[1]; Table IJ3, Tau inhibitor-based
  inhibition at 0.01 µM: 15 to 20%
  inhibition at 0.5 µM: 80 to 100%
[3]
  inhibition at 0.01 µM: 15 to 20%
  inhibition at 0.5 µM: 60 to 70%
[4]
  inhibition at 0.01 µM: 15 to 20%
  inhibition at 0.5 µM: 80 to 100%

## N#Cc1ccc(O[C@H]2CC[C@H](NC(=O)c3ccc(N4CCC(CN5CCN(c6ccc7c(c6F)C(=O)N(N6CCC(=O)NC6=O)C7=O)CC5)CC4)nn3)CC2)cc1Cl [GT-05232, N-((1r,4r)-4-(3-chloro-4-cyanophenoxy)cyclohexyl)-6-(4-((4-(2-(2,4-dioxotetrahydropyrimidin-1(2H)-yl)-4-fluoro-1,3-dioxoisoindolin-5-yl)piperazin-1-yl)methyl)piperidin-1-yl)pyridazine-3-carboxamide]
[1]; Table IF1, AR inhibitor-based
  inhibition at 0.01 µM: 10 to 15%
  inhibition at 0.5 µM: 25 to 30%

## CC1(C)[C@H](NC(=O)c2ccc(N3CCC(CN4CC5CC(C4)N5c4ccc5c(c4)C(=O)N(N4CCC(=O)NC4=O)C5=O)CC3)nc2)C(C)(C)[C@H]1Oc1ccc(C#N)c(Cl)c1 [GT-05306, N-((1r,3r)-3-(3-chloro-4-cyanophenoxy)-2,2,4,4-tetramethylcyclobutyl)-6-(4-((6-(2-(2,4-dioxotetrahydropyrimidin-1(2H)-yl)-1,3-dioxoisoindolin-5-yl)-3,6-diazabicyclo[3.1.1]heptan-3-yl)methyl)piperidin-1-yl)nicotinamide]
[1]; Table IF1, AR inhibitor-based
  inhibition at 0.01 µM: 10 to 15%
  inhibition at 0.5 µM: 20 to 25%
[2]
  inhibition at 0.01 µM: 15 to 20%
  inhibition at 0.5 µM: 20 to 30%

## Cn1c2ccncc2c2ccc(-c3cnc(N4CCN(CC5CCN(c6ccc7c(c6)C(=O)N(N6CCC(=O)NC6=O)C7=O)CC5)CC4)c(C(F)(F)F)c3)cc21 [GT-08553, 2-(2,4-dioxotetrahydropyrimidin-1(2H)-yl)-5-(4-((4-(5-(5-methyl-5H-pyrido[4,3-b]indol-7-yl)-3-(trifluoromethyl)pyridin-2-yl)piperazin-1-yl)methyl)piperidin-1-yl)isoindoline-1,3-dione]
[1]; Table IJ3, Tau inhibitor-based
  inhibition at 0.01 µM: 10 to 15%
  inhibition at 0.5 µM: 40 to 50%

## Cn1c2ccncc2c2ccc(-c3ccc(N4CCN(CC5CCN(c6cccc7c6C(=O)N(N6CCC(=O)NC6=O)C7=O)CC5)CC4)nc3)cc21 [GT-08558, 2-(2,4-dioxotetrahydropyrimidin-1(2H)-yl)-4-(4-((4-(5-(5-methyl-5H-pyrido[4,3-b]indol-7-yl)pyridin-2-yl)piperazin-1-yl)methyl)piperidin-1-yl)isoindoline-1,3-dione]
[1]; Table IJ3, Tau inhibitor-based
  inhibition at 0.01 µM: 5 to 10%
  inhibition at 0.5 µM: 80 to 100%
[4]
  inhibition at 0.01 µM: -5 to 0%
  inhibition at 0.5 µM: 50 to 60%

## O=C1CCN(N2C(=O)c3cccc(N4CCC(CN5CCN(c6ccc(-c7ccc8c(c7)[nH]c7ccncc78)cn6)CC5)CC4)c3C2=O)C(=O)N1 [GT-08557, 4-(4-((4-(5-(5H-pyrido[4,3-b]indol-7-yl)pyridin-2-yl)piperazin-1-yl)methyl)piperidin-1-yl)-2-(2,4-dioxotetrahydropyrimidin-1(2H)-yl)isoindoline-1,3-dione]
[1]; Table IJ3, Tau inhibitor-based
  inhibition at 0.01 µM: 0 to 5%
  inhibition at 0.5 µM: 60 to 70%
[3]
  inhibition at 0.01 µM: 30 to 40%
  inhibition at 0.5 µM: 50 to 60%

## Cn1c2ccncc2c2ccc(-c3cnc(N4CCN(CC5CCN(c6cccc7c6C(=O)N(N6CCC(=O)NC6=O)C7=O)CC5)CC4)c(Cl)c3)cc21 [GT-08564, 4-(4-((4-(3-chloro-5-(5-methyl-5H-pyrido[4,3-b]indol-7-yl)pyridin-2-yl)piperazin-1-yl)methyl)piperidin-1-yl)-2-(2,4-dioxotetrahydropyrimidin-1(2H)-yl)isoindoline-1,3-dione]
[1]; Table IJ3, Tau inhibitor-based
  inhibition at 0.01 µM: 10 to 15%
  inhibition at 0.5 µM: 80 to 100%
[4]
  inhibition at 0.01 µM: 0 to 5%
  inhibition at 0.5 µM: 70 to 80%

Reference: US20260364184A1, “COMPOUND BASED ON OXOISOINDOLINYL-SUBSTITUTED TETRAHYDROPYRIMIDINE-DIONE AND USE THEREOF” (GLUETACS THERAPEUTICS (SHANGHAI) CO., LTD., priority 2023, published 2026)
